Test results reported in ChEMBL document CHEMBL1221210, “A Cdc7 kinase inhibitor restricts initiation of DNA replication and has antitumor activity” (Nat Chem Biol, 2008).

Legend:
[1] = tested on: HeLa; assay: Inhibition of DNA replication in human HeLa cells assessed as interorigin distance between homogenous DNA fibers at 2 uM after 4 hrs by immunofluorescence assay; assay type: functional
[2] = tested on: HeLa; assay: Inhibition of DNA replication in human HeLa cells assessed as interorigin distance between homogenous DNA fibers at 5 uM after 2 hrs by immunofluorescence assay; assay type: functional
[3] = tested on: HeLa; assay: Inhibition of DNA replication in human HeLa cells assessed as interorigin distance between homogenous DNA fibers at 20 uM after 6 hrs by immunofluorescence assay; assay type: functional
[4] = tested on: HeLa; assay: Inhibition of DNA replication in human HeLa cells assessed as increase in replication fork speed per min at 2 uM after 4 hrs by immunofluorescence assay; assay type: functional
[5] = tested on: HeLa; assay: Inhibition of DNA replication in human HeLa cells assessed as increase in replication fork speed per min at 5 uM after 6 hrs by immunofluorescence assay; assay type: functional
[6] = tested on: HeLa; assay: Inhibition of DNA synthesis in human HeLa cells assessed as Brd-U uptake at 5 uM by FACS analysis; assay type: functional; parameters: scale not given: the % may be the effect or the level left
[7] = tested on: HeLa; assay: Inhibition of DNA synthesis in human HeLa cells assessed as Brd-U uptake at 5 uM after 6 hrs by FACS analysis; assay type: functional; parameters: scale not given: the % may be the effect or the level left
[8] = tested on: HeLa; assay: Inhibition of DNA synthesis in human HeLa cells assessed as Brd-U uptake at 5 uM after 9 hrs by FACS analysis; assay type: functional; parameters: scale not given: the % may be the effect or the level left
[9] = tested on: NHDF; assay: Induction of cell cycle arrest in thymidine deficient NHDF assessed as DNA synthesis in S-phase at 5 uM after 16hrs FACS analysis in presence of serum; assay type: cell-based; conditions: human
[10] = tested on: NHDF; assay: Prevention of nocodazole induced mitotic arrest in NHDF after 1 hr by FACS analysis; assay type: cell-based; conditions: human
[11] = tested on: Mus musculus; assay: AUC in SCID mouse carrying human HL60 cells at 20 mg/kg, iv after 10 hrs; assay type: ADME, organism-based, HL-60; parameters: time < 10 hr, dose 20 mg/kg, route intravenous; conditions: in vivo
[12] = tested on: Mus musculus; assay: AUC in SCID mouse carrying human HL60 cells at 30 mg/kg, iv after 10 hrs; assay type: ADME, organism-based, HL-60; parameters: time < 10 hr, dose 30 mg/kg, route intravenous; conditions: in vivo
[13] = biological target: Serine/threonine-protein kinase Nek6 (Homo sapiens, UniProt Q9HC98); assay: Inhibition of Nek6
[14] = biological target: Serine/threonine-protein kinase NIM1 (Homo sapiens, UniProt Q8IY84); assay: Inhibition of NIM1
[15] = biological target: Protein kinase C beta type (Homo sapiens, UniProt P05771); assay: Inhibition of PKCbeta
[16] = tested on: HeLa; assay: Antiproliferative activity against p53 deficient human HeLa cells after 72 hrs; assay type: functional, cell-based
[17] = Antiproliferative activity against p53 deficient human A2780/E6 cells after 72 hrs by proliferative assay; assay type: functional, cell-based; conditions: A2780/E6, 72 h
[18] = tested on: HCT-116; assay: Antiproliferative activity against human HCT116 cells expressing p53 gene after 72 hrs by proliferative assay; assay type: functional, cell-based; conditions: HCT-116, 72 h
[19] = tested on: SF-539; assay: Antiproliferative activity against human SF539 cells expressing p53 gene after 72 hrs by proliferative assay; assay type: functional, cell-based; conditions: SF-539, 72 h
[20] = tested on: HeLa; assay: Induction of cell cycle arrest in p53 deficient human HeLa cells assessed as assessed as accumulation at subG1 phase at 5 uM after 24hrs by FACS analysis; assay type: functional
[21] = tested on: SW480; assay: Induction of cell cycle arrest in p53 deficient human SW480 cells assessed as accumulation at subG1 phase at 5 uM after 24hrs by FACS analysis; assay type: functional
[22] = Induction of cell cycle arrest in p53 deficient human HCT116-E6 cells assessed as accumulation at subG1 phase at 5 uM after 24hrs by FACS analysis; assay type: functional
[23] = Induction of cell cycle arrest in p53 deficient human A2780/E6 cells as accumulation at subG1 phase at 5 uM after 24hrs by FACS analysis; assay type: functional
[24] = tested on: HCT-116; assay: Induction of cell cycle arrest in human HCT116 cells expressing p53 gene assessed as accumulation at subG1 phase at 5 uM after 24hrs by FACS analysis; assay type: functional
[25] = tested on: A2780; assay: Induction of cell cycle arrest in human A2780 cells expressing p53 gene assessed as accumulation at subG1 phase at 5 uM after 24hrs by FACS analysis; assay type: functional
[26] = tested on: HeLa; assay: Induction of cell cycle arrest in p53 deficient human HeLa cells assessed as accumulation at subG1 phase at 10 uM after 24hrs by FACS analysis; assay type: functional
[27] = Induction of cell cycle arrest in p53 deficient human HCT116-E6 cells assessed as accumulation at subG1 phase at 10 uM after 24hrs by FACS analysis; assay type: functional
[28] = tested on: OVCAR-8; assay: Induction of cell cycle arrest in p53 deficient human OVCAR8 cells assessed as accumulation at subG1 phase at 10 uM after 24 hrs by FACS analysis; assay type: functional
[29] = tested on: MCF7; assay: Induction of cell cycle arrest in human MCF7 cells expressing p53 gene assessed as accumulation at subG1 phase at 10 uM after 24hrs by FACS analysis; assay type: functional
[30] = tested on: HCT-15; assay: Induction of cell cycle arrest in human HCT15 cells expressing p53 gene assessed as accumulation at subG1 phase at 10 uM after 24 hrs by FACS analysis; assay type: functional
[31] = tested on: U2OS; assay: Induction of cell cycle arrest in human U2OS cells expressing p53 gene assessed as accumulation at subG1 phase at 10 uM after 24 hrs by FACS analysis; assay type: functional
[32] = tested on: SF-268; assay: Induction of cell cycle arrest in p53 deficient human SF268 cells assessed as residual DNA synthesis at 5 uM after 24 hrs FACS analysis; assay type: functional
[33] = tested on: OVCAR-8; assay: Induction of cell cycle arrest in p53 deficient human OVCAR8 cells assessed as residual DNA synthesis at 5 uM after 24hrs by FACS analysis; assay type: functional
[34] = tested on: MCF7; assay: Induction of cell cycle arrest in human MCF7 cells expressing p53 gene assessed as residual DNA synthesis at 5 uM after 24 hrs by FACS analysis; assay type: functional
[35] = tested on: HCT-116; assay: Induction of cell cycle arrest in human HCT116 cells expressing p53 gene assessed as residual DNA synthesis at 5 uM after 24 hrs by FACS analysis; assay type: functional
[36] = tested on: U2OS; assay: Induction of cell cycle arrest in human U2OS cells expressing p53 gene assessed as residual DNA synthesis at 5 uM after 24 hrs by FACS analysis; assay type: functional
[37] = tested on: A2780; assay: Induction of cell cycle arrest in human A2780 cells expressing p53 gene assessed as residual DNA synthesis at 5 uM after 24 hrs by FACS analysis; assay type: functional
[38] = tested on: K562; assay: Induction of cell cycle arrest in p53 deficient human K562 cells assessed as residual DNA synthesis at 10 uM after 24 hrs by FACS analysis; assay type: functional
[39] = tested on: OVCAR-8; assay: Induction of cell cycle arrest in p53 deficient human OVCAR8 cells assessed as residual DNA synthesis at 10 uM after 24 hrs by FACS analysis; assay type: functional
[40] = tested on: HCT-116; assay: Induction of cell cycle arrest in human HCT116 cells expressing p53 gene assessed as residual DNA synthesis at 10 uM after 24 hrs by FACS analysis; assay type: functional
[41] = tested on: HCT-15; assay: Induction of cell cycle arrest in human HCT15 cells expressing p53 gene assessed as residual DNA synthesis at 10 uM after 24 hrs by FACS analysis; assay type: functional
[42] = tested on: NHDF; assay: Induction of cell cycle arrest in NHDF expressing p53 gene assessed as residual DNA synthesis at 10 uM after 24 hrs by FACS analysis; assay type: cell-based; conditions: human

Chain of Serine/threonine-protein kinase NIM1 (Q8IY84 whole entry): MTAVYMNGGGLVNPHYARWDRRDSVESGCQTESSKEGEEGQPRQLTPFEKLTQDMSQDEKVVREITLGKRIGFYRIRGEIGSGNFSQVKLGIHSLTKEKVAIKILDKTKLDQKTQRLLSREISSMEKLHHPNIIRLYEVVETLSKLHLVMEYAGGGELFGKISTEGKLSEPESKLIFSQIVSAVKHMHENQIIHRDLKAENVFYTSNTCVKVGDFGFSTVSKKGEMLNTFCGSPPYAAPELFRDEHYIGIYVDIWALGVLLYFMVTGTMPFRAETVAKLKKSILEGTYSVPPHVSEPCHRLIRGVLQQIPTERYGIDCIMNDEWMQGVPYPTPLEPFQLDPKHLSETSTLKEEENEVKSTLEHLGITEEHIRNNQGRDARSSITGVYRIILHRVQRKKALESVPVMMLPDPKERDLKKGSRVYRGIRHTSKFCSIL
Chain of Serine/threonine-protein kinase Nek6 (Q9HC98 whole entry): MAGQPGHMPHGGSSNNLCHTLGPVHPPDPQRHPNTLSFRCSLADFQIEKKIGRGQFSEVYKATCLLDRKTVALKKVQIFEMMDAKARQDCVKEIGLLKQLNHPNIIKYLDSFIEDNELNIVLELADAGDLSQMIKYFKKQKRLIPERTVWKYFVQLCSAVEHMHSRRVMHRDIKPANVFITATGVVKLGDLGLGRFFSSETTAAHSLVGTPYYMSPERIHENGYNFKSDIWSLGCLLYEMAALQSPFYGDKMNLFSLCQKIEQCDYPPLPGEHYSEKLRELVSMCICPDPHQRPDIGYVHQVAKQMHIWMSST
Chain of Protein kinase C beta type (P05771 whole entry): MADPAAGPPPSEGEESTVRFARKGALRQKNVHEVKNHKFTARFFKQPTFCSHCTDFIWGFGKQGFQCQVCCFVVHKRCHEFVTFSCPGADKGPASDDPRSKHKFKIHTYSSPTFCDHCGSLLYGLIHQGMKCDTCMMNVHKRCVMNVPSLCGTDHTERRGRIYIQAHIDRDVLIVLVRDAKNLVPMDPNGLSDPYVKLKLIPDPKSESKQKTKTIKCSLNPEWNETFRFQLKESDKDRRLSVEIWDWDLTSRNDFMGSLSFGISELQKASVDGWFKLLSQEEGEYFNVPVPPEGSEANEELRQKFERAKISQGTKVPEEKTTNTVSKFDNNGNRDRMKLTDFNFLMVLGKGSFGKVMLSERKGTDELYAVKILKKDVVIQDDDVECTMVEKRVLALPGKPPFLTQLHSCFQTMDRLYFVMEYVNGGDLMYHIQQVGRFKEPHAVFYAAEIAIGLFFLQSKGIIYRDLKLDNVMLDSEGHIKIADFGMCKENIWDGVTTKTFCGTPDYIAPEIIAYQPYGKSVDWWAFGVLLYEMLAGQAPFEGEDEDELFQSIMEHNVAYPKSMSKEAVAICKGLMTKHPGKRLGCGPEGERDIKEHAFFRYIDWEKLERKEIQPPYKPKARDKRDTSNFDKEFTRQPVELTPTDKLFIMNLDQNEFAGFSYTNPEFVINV

In the case of `O=C1NCCc2[nH]c(-c3ccncc3)cc21`, the Activity [1] is reported as 236 kilobase, the Activity [2] is reported as 210 kilobase and the Activity [3] is reported as 287 kilobase. It also gave an Activity [4] of 1.81 kilobase, an Activity [5] of 2.14 kilobase and an Activity [6] of 37%. For the same compound, the Activity [7] was 26%, the Activity [8] was 9% and the Activity [9] was “Active”. The Activity [10] was “Not Active”, the AUC [11] was 47 µM·h and the AUC [12] was 71 µM·h. For the same compound, the IC50 [13] was > 10 µM, the IC50 [14] was > 10 µM and the IC50 [15] was > 10 µM. For the same compound, the IC50 [16] was 1.83 µM, the IC50 [17] was 1.5 µM and the IC50 [18] was 0.97 µM. The IC50 [19] was 2.34 µM, the Activity [20] was 10% and the Activity [21] was >20%. For the same compound, the Activity [22] was 3%, the Activity [23] was >20% and the Activity [24] was 3%. The Activity [25] was >20%, the Activity [26] was 10% and the Activity [27] was 3%. For the same compound, the Activity [28] was 3%, the Activity [29] was <3% and the Activity [30] was 3%. The Activity [31] was 3%, the Activity [32] was <3% and the Activity [33] was <3%. For the same compound, the Activity [34] was <3%, the Activity [35] was 3% and the Activity [36] was <3%. For the same compound, the Activity [37] was <3%, the Activity [38] was 10% and the Activity [39] was <3%. The Activity [40] was <3%, the Activity [41] was <3% and the Activity [42] was < 3%.
